Experimental data published in patent US7989438B2, “Therapeutic compounds” (Istituto di Ricerche di Biologia Molecolare P. Angeletti SpA, priority 2007, dated 2011).
Read-outs that look alike come from different tables or passages of the source.

System: HCV subgenomic replication
Experiment: Cell based HCV replication assay (subgenomic replicon in Huh-7 cells, NS3 Cell-ELISA)
Conditions: activity ranges
Summary of the method: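 Huh-7 cells stably carrying the I377neo/NS3-3′/wt subgenomic replicon, seeded at 10^4 cells/well in DMEM/10% FCS and exposed to inhibitor for 96 h. NS3 expression was measured by Cell-ELISA (mAb 10E5/24, alkaline phosphatase, absorbance 405/620 nm), in duplicate. IC50 was fitted to the Hill equation, with background from parental Huh-7 cells.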

[1] = Table A, Huh-7 replicon cells, 96 hours, read-out: IC50 (nM), Inhibition of HCV subgenomic replication
[2] = Table 5, various macrocycles, read-out: IC50* (nM), Inhibition of HCV subgenomic replication
[3] = Table 2, various macrocycles, read-out: IC50* (nM), Inhibition of HCV subgenomic replication

## CN1CCN(C)C2COc3cc(F)ccc3-c3c(C4CCCCC4)c4ccc(cc4n3C2)C(=O)NS(=O)(=O)N(C)CC1 [Compound A11, (7R)-14-cyclohexyl-3-fluoro-18,21,24-trimethyl-7,8-dihydro-6H-7,11-(epiminoethanoiminoethanoiminothioiminomethano)indolo[1,2-e][1,5]benzoxazocin-15-one 17,17-dioxide]
[1]
  IC50: < 25 nM

## CN1CCN(C)C2COc3ccccc3-c3c(C4CCCCC4F)c4ccc(cc4n3C2)C(=O)NS(=O)(=O)N(C)CC1 (single isomer, unassigned) [Example 413, (7R)-14-[(1R,2S) or (1S,2R)-2-fluorocyclohexyl]-18,21,24-trimethyl-7,8-dihydro-6H-7,11-(epiminoethanoiminoethanoiminothioiminomethano)-indolo[1,2-e][1,5]benzoxazocin-15-one 17,17-dioxide]
Table 4, various macrocycles, read-out: IC50* (nM), Inhibition of HCV subgenomic replication
  IC50: < 25 nM

## COc1ccc2c(c1)OCC1CCN(C)CC(F)CN(C)S(=O)(=O)NC(=O)c3ccc4c(C5CCCCC5)c-2n(c4c3)C1 [Example 525, (7R)-14-cyclohexyl-20-fluoro-3-methoxy-18,22-dimethyl-7,8-dihydro-6H-7,11-(ethanoiminopropanoiminothioiminomethano)indolo[1,2-e][1,5]benzoxazocin-15-one 17,17-dioxide]
[2]
  IC50: < 25 nM

## CN1CCCC2COc3ccccc3-c3c(C4CCCCC4F)c4ccc(cc4n3C2)C(=O)NS(=O)(=O)N(C)CC1 (single isomer, unassigned) [Compound A40, (7R)-14-[(1R,2S) or (1S,2R)-2-fluorocyclohexyl]-18,21-dimethyl-7,8-dihydro-6H-7,11-(propanoiminoethanoiminothioiminomethano)indolo[1,2-e][1,5]benzoxazocin-15-one 17,17-dioxide]
[1]
  IC50: < 25 nM

## Cc1ccc2c(c1)OCC1Cn3c-2c(C2CCCCC2)c2ccc(cc23)C(=O)NS(=O)(=O)N(C)CCN(C)CCN1C [Example 216, (7R)-14-cyclohexyl-3,18,21,24-tetramethyl-7,8-dihydro-6H-7,11-(epiminoethanoiminoethanoiminothioiminomethano)-indolo[1,2-e][1,5]benzoxazocin-15-one 17,17-dioxide]
[3]
  IC50: < 25 nM

## COc1cccc2c1OCC1CCCN(C)CCN(C)S(=O)(=O)NC(=O)c3ccc4c(C5CCCCC5)c-2n(c4c3)C1 [Example 510, (7R)-14-cyclohexyl-4-methoxy-18,21-dimethyl-7,8-dihydro-6H-7,11-(propanoiminoethanoiminothioiminomethano)indolo[1,2-e][1,5]benzoxazocin-15-one 17,17-dioxide]
[2]
  IC50: < 25 nM

## CCCc1cccc2c1OCC1Cn3c-2c(C2CCCCC2)c2ccc(cc23)C(=O)NS(=O)(=O)N(C)CCN(C)CCN1C [Example 212, (7R)-14-cyclohexyl-18,21,24-trimethyl-4-propyl-7,8-dihydro-6H-7,11-(epiminoethanoiminoethanoiminothioiminomethano)-indolo[1,2-e][1,5]benzoxazocin-15-one 17,17-dioxide]
[3]
  IC50: 25 to 150 nM

## CC(C)N1CCN(C)[C@H]2COc3cc(F)ccc3-c3c(C4CCCCC4)c4ccc(cc4n3C2)C(=O)NS(=O)(=O)N(C)CC1 [Example 207, (7R)-14-cyclohexyl-3-fluoro-21-isopropyl-18,24-dimethyl-7,8-dihydro-6H-7,11-(epiminoethanoiminoethanoiminothioiminomethano)-indolo[1,2-e][1,5]benzoxazocin-15-one 17,17-dioxide]
[3]
  IC50: < 25 nM

## CN1CCN2CCCN(CC2)S(=O)(=O)NC(=O)c2ccc3c(C4CCCCC4)c4n(c3c2)C[C@@H]1COc1ccccc1-4 [Example 304, (20R)-31-cyclohexyl-21-methyl-18-oxa-2-thia-1,3,10,21,24-pentaazahexacyclo[22.3.2.1^5,9.1^8,11.1^10,20.0^12,17]dotriaconta-5(32),6,8,11(31),12,14,16-heptaen-4-one 2,2-dioxide]
Hepatitis C virus, Huh-7, Table 3, various macrocycles, read-out: IC50* (nM), Inhibition of HCV subgenomic replication
  IC50: < 25 nM

## CN(C)CC(=O)N1CCN(C)[C@H]2COc3ccccc3-c3c(C4CCCCC4)c4ccc(cc4n3C2)C(=O)NS(=O)(=O)N(C)CC1 [Example 105, (7R)-14-cyclohexyl-21-(N,N-dimethylglycyl)-18,24-dimethyl-7,8-dihydro-6H-7,11-(epiminoethanoiminoethanoiminothioiminomethano)-indolo[1,2-e][1,5]benzoxazocin-15-one 17,17-dioxide]
Table 1, 16 membered macrocycles, read-out: IC50* (nM), Inhibition of HCV subgenomic replication
  IC50: < 25 nM

## CCN1CCN(CCO)[C@H]2COc3cc(C)ccc3-c3c(C4CCCCC4)c4ccc(cc4n3C2)C(=O)NS(=O)(=O)N(C)CC1 [Example 214, (7R)-14-cyclohexyl-21-ethyl-24-(2-hydroxyethyl)-3,18-dimethyl-7,8-dihydro-6H-7,11-(epiminoethanoiminoethanoiminothioiminomethano)-indolo[1,2-e][1,5]benzoxazocin-15-one 17,17-dioxide]
[3]
  IC50: < 25 nM

## CN1CCOCC2COc3ccccc3-c3c(C4CCCCC4)c4ccc(cc4n3C2)C(=O)NS(=O)(=O)N(C)CC1 (single isomer, unassigned) [Compound A39, (7R or 7S)-14-cyclohexyl-18,21-dimethyl-7,8-dihydro-6H-7,11-(methanooxyethanoiminoethanoiminothioiminomethano)indolo[1,2-e][1,5]benzoxazocin-15-one 17,17-dioxide]
[1]
  IC50: < 25 nM

## CN1CCN(Cc2ccccc2)CCN(C)S(=O)(=O)NC(=O)c2ccc3c(C4CCCCC4)c4n(c3c2)CC1Cc1ccccc1-4 (stereo not drawn) [Example 201, 20-benzyl-13-cyclohexyl-17,23-dimethyl-6,7-dihydro-5H-6,10-(epiminoethanoiminoethanoiminothioiminomethano)-indolo[2,1-a][2]benzazepin-14-one 16,16-dioxide]
[3]
  IC50: > 500 nM

## CN1CCN2CCC(C2)N(C)S(=O)(=O)NC(=O)c2ccc3c(C4CCCCC4)c4n(c3c2)C[C@@H]1COc1ccccc1-4 [Compound A18, (18R)-29-cyclohexyl-10,17-dimethyl-20-oxa-9-thia-1,8,10,14,17-pentaazahexacyclo[16.9.1.1^2,6.1^3,27.1^11,14.0^21,26]hentriaconta-2(31),3,5,21,23,25,27(29)-heptaen-7-one 9,9-dioxide]
Hepatitis C virus, Table A, Huh-7 replicon cells, 96 hours, read-out: IC50 (nM), Inhibition of HCV subgenomic replication
  IC50: < 25 nM

## CN1CCCCN(C)S(=O)(=O)NC(=O)c2ccc3c(C4CCCCC4F)c4n(c3c2)CC(COc2ccccc2-4)C1 (single isomer, unassigned) [Compound A16, (7R,S)-14-[(1R,2S) or (1S,2R)-2-fluorocyclohexyl]-18,23-dimethyl-7,8-dihydro-6H-11,7-(methanoiminothioiminobutanoiminomethano)indolo[1,2-e][1,5]benzoxazocin-15-one 17,17-dioxide]
[1]
  IC50: 25 to 150 nM

## CN1CCN(C)CC2Cn3c(c(C4CCCCC4)c4ccc(cc43)C(=O)NS(=O)(=O)N(C)CC1)-c1ccccc1N2C (stereo not drawn) [Compound A9, 13-cyclohexyl-5,17,20,23-tetramethyl-6,7-dihydro-5H-10,6-(methanoiminothioiminoethanoiminoethanoiminomethano)indolo[1,2-d][1,4]benzodiazepin-14-one 16,16-dioxide]
[1]
  IC50: 25 to 150 nM

## COc1ccc2c(c1)CC1CCN(C)CCN(C)S(=O)(=O)NC(=O)c3ccc4c(C5CCCCC5)c-2n(c4c3)C1 (stereo not drawn) [Compound A10, 13-cyclohexyl-3-methoxy-17,20-dimethyl-6,7-dihydro-5H-6,10-(ethanoiminoethanoiminothioiminomethano)indolo[2,1-a][2]benzazepin-14-one 16,16-dioxide]
[1]
  IC50: 25 to 150 nM

## CCN1CCN(Cc2cccnc2)C2COc3ccc(F)cc3-c3c(C4CCCCC4)c4ccc(cc4n3C2)C(=O)NS(=O)(=O)N(C)CC1 [Example 206, (7R)-14-cyclohexyl-21-ethyl-2-fluoro-18-methyl-24-(pyridin-3-ylmethyl)-7,8-dihydro-6H-7,11-(epiminoethanoiminoethanoiminothioiminomethano)-indolo[1,2-e][1,5]benzoxazocin-15-one 17,17-dioxide]
[3]
  IC50: < 25 nM

## CN1CCN(C)C2COc3cc(OCc4ccccn4)ccc3-c3c(C4CCCCC4)c4ccc(cc4n3C2)C(=O)NS(=O)(=O)N(C)CC1 [Compound A8, (7R)-14-cyclohexyl-18,21,24-trimethyl-3-(pyridin-2-ylmethoxy)-7,8-dihydro-6H-7,11-(epiminoethanoiminoethanoiminothioiminomethano)indolo[1,2-e][1,5]benzoxazocin-15-one 17,17-dioxide]
[1]
  IC50: < 25 nM

## CN1CC2CCN(CC2)S(=O)(=O)NC(=O)c2ccc3c([C@H]4CCCC[C@@H]4F)c4n(c3c2)CC(COc2ccccc2-4)C1 (single isomer, unassigned) [Example 503, 30-[(1R,2S) or (1S,2R)-2-fluorocyclohexyl]-22-methyl-18-oxa-2-thia-1,3,10,22-tetraazahexacyclo[22.2.2.1^5,9.1^8,11.1^10,20.0^12,17]hentriaconta-5(31),6,8,11(30),12,14,16-heptaen-4-one 2,2-dioxide]
Hepatitis C virus, Huh-7, Table 5, various macrocycles, read-out: IC50* (nM), Inhibition of HCV subgenomic replication
  IC50: 25 to 150 nM

## COc1cccc2c1OCC1Cn3c-2c(C2CCCCC2)c2ccc(cc23)C(=O)NS(=O)(=O)N(C)CCN(Cc2cnn(C)c2)CCN1C [Compound A29, (7R)-14-cyclohexyl-4-methoxy-18,24-dimethyl-21-[(1-methyl-1H-pyrazol-4-yl)methyl]-7,8-dihydro-6H-7,11-(epiminoethanoiminoethanoiminothioiminomethano)indolo[1,2-e][1,5]benzoxazocin-15-one 17,17-dioxide]
[1]
  IC50: < 25 nM
